How the values were obtained:
Assay type in all cases: in vivo
Kochia (Kochia scoparia) [1] = experiment: Test A preemergence; conditions: Bassia scoparia, pre-emergence, 240 h, 0 to 100 scale (0 no effect, 100 complete control), read-out: Plant response rating, Kochia
Method in brief: (§1)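 Each rating is a visual injury score from 0 to 100 given about 10 d after treatment, judged against untreated controls kept alongside in the greenhouse. In loam soil–sand blend, seeds got a preemergence directed soil spray, while postemergence plants were 2 to 10 cm tall at spraying.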

[2] = test system: giant foxtail (Setaria faberii); experiment: Test A preemergence; conditions: Setaria faberi, pre-emergence, 240 h, 0 to 100 scale (0 no effect, 100 complete control), read-out: Plant response rating, Foxtail, Giant
Method in brief: as §1

[3] = test system: pigweed (Amaranthus retroflexus); experiment: Test A preemergence; conditions: Amaranthus retroflexus, pre-emergence, 240 h, 0 to 100 scale (0 no effect, 100 complete control), read-out: Plant response rating, Pigweed
[4] = test system: ryegrass, Italian (Italian ryegrass, Lolium multiflorum); experiment: Test A preemergence; conditions: Lolium multiflorum, pre-emergence, 240 h, 0 to 100 scale (0 no effect, 100 complete control), read-out: Plant response rating, Ryegrass, Italian
Method in brief: as §1

[5] = test system: ragweed (common ragweed, Ambrosia elatior); experiment: Test A preemergence; conditions: Ambrosia artemisiifolia, pre-emergence, 240 h, 0 to 100 scale (0 no effect, 100 complete control), read-out: Plant response rating, Ragweed
Method in brief: as §1

[6] = test system: barnyardgrass (Echinochloa crus-galli); experiment: Test A preemergence; conditions: Echinochloa crus-galli, pre-emergence, 240 h, 0 to 100 scale (0 no effect, 100 complete control), read-out: Plant response rating, Barnyardgrass
Method in brief: as §1

rice (Oryra sativa) = experiment: Test B flooded paddy test; conditions: Oryza sativa, 360 h, Flood, 250 g ai/ha; visually evaluated after 13 to 15 d; read-out: Plant response rating, Rice (0 to 100 scale where 0 is no effect and 100 is complete control)
Method in brief: (§2)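 Percent control, visually estimated after 13–15 d in the greenhouse on a 0–100 basis, compares treated pots with untreated ones; compound was put into paddy water 3 cm above the soil when plants had two leaves.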

[7] = test system: ducksalad (Heteranthera limosa); experiment: Test B flooded paddy test; conditions: Heteranthera limosa, 360 h, Flood, 250 g ai/ha; visually evaluated after 13 to 15 d; read-out: Plant response rating, Ducksalad (0 to 100 scale where 0 is no effect and 100 is complete control)
Method in brief: as §2

[8] = test system: sedge, umbrella (small-flower umbrella sedge, Cyperus difformis); experiment: Test B flooded paddy test; conditions: Cyperus difformis, 360 h, Flood, 250 g ai/ha; visually evaluated after 13 to 15 d; read-out: Plant response rating, Sedge, Umbrella (0 to 100 scale where 0 is no effect and 100 is complete control)
Method in brief: as §2

[9] = test system: barnyardgrass (Echinochloa crus-galli); experiment: Test B flooded paddy test; conditions: Echinochloa crus-galli, 360 h, Flood, 250 g ai/ha; visually evaluated after 13 to 15 d; read-out: Plant response rating, Barnyardgrass (0 to 100 scale where 0 is no effect and 100 is complete control)
Method in brief: as §2

[10] = test system: Galium (catchweed bedstraw, Galium aparine); experiment: Test A postemergence; conditions: Galium, post-emergence, 240 h, Postemergence
Method in brief: as §1

Kochia (Kochia scoparia) [11] = experiment: Test A postemergence; conditions: Bassia scoparia, post-emergence, 240 h, Postemergence
Method in brief: as §1

[12] = test system: giant foxtail (Setaria faberii); experiment: Test A postemergence; conditions: Setaria faberi, post-emergence, 240 h, Postemergence
Method in brief: as §1

[13] = test system: pigweed (Amaranthus retroflexus); experiment: Test A postemergence; conditions: Amaranthus retroflexus, post-emergence, 240 h, Postemergence
Method in brief: as §1

[14] = test system: wheat (Triticum aestivum); experiment: Test A postemergence; conditions: Triticum aestivum, post-emergence, 240 h, Postemergence
Method in brief: as §1

CN1C[C@H](c2ccc(C(F)(F)F)nc2)[C@@H](C(=O)Nc2ccc(F)c(F)c2F)C1=O [Compound 1373]
pest or weed control at 500 g/ha (Kochia (Kochia scoparia) [1]; 500 g ai/ha, preemergence): 100%
pest or weed control at 125 g/ha (Kochia (Kochia scoparia) [1]; Preemergence, 125 g ai/ha): 100%
pest or weed control at 500 g/ha ([2]; 500 g ai/ha, preemergence): 100%
pest or weed control at 125 g/ha ([2]; Preemergence, 125 g ai/ha): 100%
pest or weed control at 500 g/ha ([3]; 500 g ai/ha, preemergence): 100%
pest or weed control at 125 g/ha ([3]; Preemergence, 125 g ai/ha): 90%
pest or weed control at 500 g/ha ([4]; 500 g ai/ha, preemergence): 90%
pest or weed control at 125 g/ha ([4]; Preemergence, 125 g ai/ha): 60%
pest or weed control at 500 g/ha ([5]; 500 g ai/ha, preemergence): 100%
pest or weed control at 125 g/ha ([5]; Preemergence, 125 g ai/ha): 100%
pest or weed control at 500 g/ha ([6]; 500 g ai/ha, preemergence): 100%
pest or weed control at 125 g/ha ([6]; Preemergence, 125 g ai/ha): 90%
pest or weed control at 250 g/ha (rice (Oryra sativa)): 0%
pest or weed control at 250 g/ha [7]: 100%
pest or weed control at 250 g/ha [8]: 0%
pest or weed control at 250 g/ha [9]: 85%
pest or weed control at 125 g/ha ([10]; 125 g ai/ha, visual rating about 10 d after treatment, read-out: Galium plant response rating (0 to 100 scale)): 60%
pest or weed control at 500 g/ha ([10]; 500 g ai/ha, visual injury, 0 to 100 scale (0 no effect, 100 complete control), approx. 10 d, read-out: Plant response rating, Galium): 60%
pest or weed control at 125 g/ha (Kochia (Kochia scoparia) [11]; 125 g ai/ha, visual rating about 10 d after treatment, read-out: Kochia plant response rating (0 to 100 scale)): 80%
pest or weed control at 500 g/ha (Kochia (Kochia scoparia) [11]; 500 g ai/ha, visual injury, 0 to 100 scale (0 no effect, 100 complete control), approx. 10 d, read-out: Plant response rating, Kochia): 80%
pest or weed control at 125 g/ha ([12]; 125 g ai/ha, visual rating about 10 d after treatment, read-out: Foxtail, Giant plant response rating (0 to 100 scale)): 90%
pest or weed control at 500 g/ha ([12]; 500 g ai/ha, visual injury, 0 to 100 scale (0 no effect, 100 complete control), approx. 10 d, read-out: Plant response rating, Foxtail, Giant): 90%
pest or weed control at 125 g/ha ([13]; 125 g ai/ha, visual rating about 10 d after treatment, read-out: Pigweed plant response rating (0 to 100 scale)): 70%
pest or weed control at 500 g/ha ([13]; 500 g ai/ha, visual injury, 0 to 100 scale (0 no effect, 100 complete control), approx. 10 d, read-out: Plant response rating, Pigweed): 90%
plant injury at 125 g/ha ([14]; 125 g ai/ha, visual rating about 10 d after treatment, read-out: Wheat plant response rating (0 to 100 scale)): 50%
plant injury at 500 g/ha ([14]; 500 g ai/ha, visual injury, 0 to 100 scale (0 no effect, 100 complete control), approx. 10 d, read-out: Plant response rating, Wheat): 60%
